Results reported in US20240252488A1 (KOREA RESEARCH INSTITUTE OF CHEMICAL TECHNOLOGY, priority 2020, published 2024).

How the values were obtained:
[1] = test system: FADD−/− Jurkat cells; assay: Necroptosis inhibition assay, TNF-α-induced necroptosis (CellTiter-Glo 2.0); format: cell-based, human; details: TNF-α 15 ng/mL; for Necroptosis inhibition assay (Rescue %) 1.1 μM: compound 1.1 µM; for Necroptosis inhibition assay (Rescue %) 10 μM: compound 10 μM
Method in brief: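 Necroptosis was triggered by TNF-α at 15 ng/mL final following 30 minutes of compound exposure (0.1, 1 or 10 μM final). Incubation ran 20 to 24 hours at 37° C under 5% CO2; cell ATP was then quantified by luminescence.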

[2] = biological target: T1, MLKL (Homo sapiens, UniProt Q8NB16); assay: MLKL degradation assay in HepG2 cell line (western blot); format: cell-based; design: endogenous in cells; host or cells: HepG2 or HaCaT; details: cell line not given; for Degradation assay (Degradation %) 1 μM: compound 1 μM; for Degradation assay (Degradation %) 10 μM: compound 10 μM
T1 sequence (Q8NB16 1-471): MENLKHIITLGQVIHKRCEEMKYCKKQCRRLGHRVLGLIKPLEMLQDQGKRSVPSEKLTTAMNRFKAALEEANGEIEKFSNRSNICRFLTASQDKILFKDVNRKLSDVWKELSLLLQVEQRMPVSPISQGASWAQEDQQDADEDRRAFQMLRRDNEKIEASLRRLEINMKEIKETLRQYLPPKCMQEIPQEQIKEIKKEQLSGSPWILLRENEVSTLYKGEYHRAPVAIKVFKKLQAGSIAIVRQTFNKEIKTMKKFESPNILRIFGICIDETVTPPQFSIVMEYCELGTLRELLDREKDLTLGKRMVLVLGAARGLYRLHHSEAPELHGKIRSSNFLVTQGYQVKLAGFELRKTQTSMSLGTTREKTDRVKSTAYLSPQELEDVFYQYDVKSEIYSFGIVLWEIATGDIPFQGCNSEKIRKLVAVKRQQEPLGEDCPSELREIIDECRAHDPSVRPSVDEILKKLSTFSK
Method in brief: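 After treating HepG2 with test compounds (final 1 μM or 10 μM) for 20-24 h, we lysed cells, equalized protein by BCA and probed MLKL by overnight primary antibody at 4 °C followed by chemiluminescent detection.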

[3] = biological target: T1, MLKL; assay: Measurement of binding affinity with MLKL receptor (competitive binding assay, Kd); design: made in house; host or cells: HEK 293 cell line (T7 phage in E. coli BL21-derived host is also described)
Method in brief: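 qPCR of MLKL eluted from liganded beads served as the read-out, from which Kd was derived. The protein was made in HEK 293 cells with a DNA tag, and test compounds competed with the bead-bound ligand at 0.9% final DMSO.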

| Compound | Degradation assay (Degradation %) 1 μM [2] | Degradation assay (Degradation %) 10 μM [2] | Kd [3] | Necroptosis inhibition assay (Rescue %) 1.1 μM [1] | Necroptosis inhibition assay (Rescue %) 10 μM [1] | Necroptosis inhibition assay (Rescue %) 1 μM ([1]; compound 1 μM) |
| --- | --- | --- | --- | --- | --- | --- |
| Nc1ncc(-c2cnn(C3CCN(CCCN4CCN(C(=O)CNc5ccc6c(c5)C(=O)N(C5CCC(=O)NC5=O)C6=O)CC4)CC3)c2)nc1C(=O)O[C@@H](C(=O)Nc1ccc(F)cc1)c1ccccc1 (stereo partly drawn) [TDH-357, (R)-2-((4-fluorophenyl)amino)-2-oxo-1-phenylethyl 3-amino-6-(1-(1-(3-(4-((2-(2,6-dioxopiperidin-3-yl)-1,3-dioxoisoindolin-5-yl)glycyl)piperazin-1-yl)propyl)piperidin-4-yl)-1H-pyrazol-4-yl)pyrazine-2-carboxylate] | 84.79% | 76.36% | 0.55 nM | 82.13 (1.1µM) % | – | – |
| Nc1ncc(-c2cnn(C3CCN(CCCN4CCN(C(=O)COc5ccc6c(c5)C(=O)N(C5CCC(=O)NC5=O)C6=O)CC4)CC3)c2)nc1C(=O)O[C@@H](C(=O)Nc1ccc(F)cc1)c1ccccc1 (stereo partly drawn) [TDH-358, (R)-2-((4-fluorophenyl)amino)-2-oxo-1-phenylethyl 3-amino-6-(1-(1-(3-(4-(2-((2-(2,6-dioxopiperidin-3-yl)-1,3-dioxoisoindolin-5-yl)oxy)acetyl)piperazin-1-yl)propyl)piperidin-4-yl)-1H-pyrazol-4-yl)pyrazine-2-carboxylate] | 91.6% | 86.73% | 0.5 nM | 100.10 (1.1 µM) % | 39.65% | – |

Further lines, with some results ahead:

| Degradation assay (Degradation %) 1 μM [2] | Degradation assay (Degradation %) 10 μM [2] | Kd [3] | Compound | Necroptosis inhibition assay (Rescue %) 1.1 μM [1] | Necroptosis inhibition assay (Rescue %) 10 μM [1] | Necroptosis inhibition assay (Rescue %) 1 μM ([1]; compound 1 μM) |
| --- | --- | --- | --- | --- | --- | --- |
| 92.98% | 85.17% | 1.7 nM | Nc1ncc(-c2cnn([C@@H]3CCN(CC4CCN(C(=O)COc5ccc6c(c5)C(=O)N(C5CCC(=O)NC5=O)C6=O)CC4)C3)c2)nc1C(=O)O[C@@H](C(=O)Nc1ccc(F)cc1)c1ccccc1 (stereo partly drawn) [TDH-359, (R)-2-((4-fluorophenyl)amino)-2-oxo-1-phenylethyl 3-amino-6-(1-((3R)-1-((1-(2-((2-(2,6-dioxopiperidin-3-yl)-1,3-dioxoisoindolin-5-yl)oxy)acetyl)piperidin-4-yl)methyl)pyrrolidin-3-yl)-1H-pyrazol-4-yl)pyrazine-2-carboxylate] | 67.68 (1.1 µM) % | 40.02% | – |
| 87.25% | 73.06% | 3.3 nM | Nc1ncc(-c2cnn(C3CN(CC4CCN(C(=O)CNc5ccc6c(c5)C(=O)N(C5CCC(=O)NC5=O)C6=O)CC4)C3)c2)nc1C(=O)O[C@@H](C(=O)Nc1ccc(F)cc1)c1ccccc1 (stereo partly drawn) [TDH-360, (R)-2-((4-fluorophenyl)amino)-2-oxo-1-phenylethyl 3-amino-6-(1-(1-((1-((2-(2,6-dioxopiperidin-3-yl)-1,3-dioxoisoindolin-5-yl)glycyl)piperidin-4-yl)methyl)azetidin-3-yl)-1H-pyrazol-4-yl)pyrazine-2-carboxylate] | 55.49 (1.1µM) % | 38.05% | – |
| 51.1% | 48.59% | 1.7 nM | Nc1ncc(-c2cnn(C3CCN(C(=O)c4cn(C5CCN(C(=O)CNc6ccc7c(c6)C(=O)N(C6CCC(=O)NC6=O)C7=O)CC5)cn4)CC3)c2)nc1C(=O)O[C@@H](C(=O)Nc1ccc(F)cc1)c1ccccc1 (stereo partly drawn) [TDH-361, (R)-2-((4-fluorophenyl)amino)-2-oxo-1-phenylethyl 3-amino-6-(1-(1-(1-(1-((2-(2,6-dioxopiperidin-3-yl)-1,3-dioxoisoindolin-5-yl)glycyl)piperidin-4-yl)-1H-imidazole-4-carbonyl)piperidin-4-yl)-1H-pyrazol-4-yl)pyrazine-2-carboxylate] | – | 10.01% | 19.10% |
